ChEMBL document CHEMBL4043147, “9,19-Cycloartenol glycoside G3 from Cimicifuga simplex regulates immune responses by modulating Th17/Treg ratio” (Bioorg Med Chem, 2017)
Active and inactive are the calls of the source.

Legend:
Treg cell = assay: Reduction in IL-10 production in C57BL/6 mouse Treg cells at 10 uM by ELISA; format: functional, cell-based
Mus musculus [1] = species: Mus musculus; assay: Inhibition of […]/TYK2 in C57BL/6 mouse CD4-positive T cell assessed as reduction in IL-12-induced STAT1 phosphorylation at 1 to 10 uM pretreated for 1 hr followed by IL-12 addition after 30 mins by Western blot analysis
CD4-positive T cell [2] = assay: Reduction in ratio of RORgammat/IL-17 expression to FoxP3/IL-10 expression in human PBMC derived allogeneic CD4-positive T cells co-cultured with […] CD14 positive monocyte derived dendritic cells at 10 uM by flow cytometric analysis; format: functional, cell-based
Mus musculus [3] = assay: Anti-inflammatory activity in IL-23 induced mouse psoriasis-like skin inflammation model assessed as reduction in IFN-gamma mRNA levels at 2 to 10 uM applied topically starting 1 day prior to IL-23 induction and continuing every other day for 14 days measured after 24 hrs post last dose by real-time PCR analysis; format: functional
Mus musculus [4] = assay: Anti-inflammatory activity in IL-23 induced mouse psoriasis-like skin inflammation model assessed as reduction in IL-6 mRNA levels at 2 to 10 uM applied topically starting 1 day prior to IL-23 induction and continuing every other day for 14 days measured after 24 hrs post last dose by real-time PCR analysis; format: functional
CD4-positive T cell [5] = assay: Reduction in FoxP3/IL-10 expression in human PBMC derived allogeneic CD4-positive T cells co-cultured with […] CD14 positive monocyte derived dendritic cells at 10 uM by flow cytometric analysis; format: functional, cell-based
Mus musculus [6] = assay: Anti-inflammatory activity in IL-23 induced mouse psoriasis-like skin inflammation model assessed as reduction in IL-4 mRNA levels at 2 to 10 uM applied topically starting 1 day prior to IL-23 induction and continuing every other day for 14 days measured after 24 hrs post last dose by real-time PCR analysis; format: functional
Mus musculus [7] = assay: Anti-inflammatory activity in IL-23 induced mouse psoriasis-like skin inflammation model assessed as reduction in IL-17A mRNA levels at 2 to 10 uM applied topically starting 1 day prior to IL-23 induction and continuing every other day for 14 days measured after 24 hrs post last dose by real-time PCR analysis; format: functional
Mus musculus [8] = assay: Anti-inflammatory activity in IL-23 induced mouse psoriasis-like skin inflammation model assessed as reduction in CCR6 mRNA levels at 2 to 10 uM applied topically starting 1 day prior to IL-23 induction and continuing every other day for 14 days measured after 24 hrs post last dose by real-time PCR analysis; format: functional
CD4-positive T cell [9] = assay: Reduction in RORgammat/IL-17 expression in human PBMC derived allogeneic CD4-positive T cells co-cultured with […] CD14 positive monocyte derived dendritic cells at 10 uM by flow cytometric analysis; format: functional, cell-based
Mus musculus [10] = assay: Anti-inflammatory activity in IL-23 induced mouse psoriasis-like skin inflammation model assessed as reduction in TNF-alpha mRNA levels at 2 to 10 uM applied topically starting 1 day prior to IL-23 induction and continuing every other day for 14 days measured after 24 hrs post last dose by real-time PCR analysis; format: functional

CC(=O)O[C@@H]1C[C@@]23C[C@@]24CC[C@H](O[C@@H]2O[C@H](CO)[C@H](O)[C@H](O)[C@H]2O)C(C)(C)[C@@H]4CC[C@H]3[C@]2(C)C[C@]3(O)O[C@H](C(=O)[C@@H]4OC4(C)C)[C@@H](C)[C@@H]3[C@@]12C
active: Activity (Treg cell) | inhibition (Mus musculus [1]) | Activity (CD4-positive T cell [2]) | Activity (Mus musculus [3]) | Activity (Mus musculus [4]) | Activity (CD4-positive T cell [5]) | Activity (Mus musculus [6]) | Activity (Mus musculus [7]) | Activity (Mus musculus [8]) | Activity (CD4-positive T cell [9]) | Activity (Mus musculus [10])
